Reference: PMC9146423, “Discovery of Nitro-azolo[1,5-a]pyrimidines with Anti-Inflammatory and Protective Activity against LPS-Induced Acute Lung Injury” (Pharmaceuticals, 2022)

Columns and labels:
[1] = tested on: LPS-stimulated peritoneal macrophages of C57bl/6j mice; test: Inhibition of LPS-induced NO synthesis (nitrite accumulation, Griess reagent) in peritoneal macrophages; assay type: cell-based, mouse; details: Mus musculus, Peritoneal macrophage
Procedure: (§1) Peritoneal macrophages (PM) were isolated from the peritoneal exudate of 30 male C57bl/6j mice. To accumulate PM, 1 mL of 3% peptone solution was injected intraperitoneally. After 3 days, the mice were euthanized by cervical dislocation. Cells of peritoneal exudate were obtained by aseptic washing of the abdominal cavity with 5 mL of sterile Hanks’s solution (+4–6 °C) without calcium and magnesium ions. The total number and viability of cells were assessed in a Goryaev counting chamber (Russia) with a 0.4% trypan blue staining (Sigma-Aldrich, St. Louis, MO, USA). The cell concentration was adjusted to 1.0 × 10^6 cells/mL in DMEM (Gibco) supplemented with 2 mM L-glutamine (Gibco, Waltham, MA, USA), 10% heat-inactivated fetal bovine serum (BioClot, Bavaria, Germany), 100 U/mL penicillin, and […] streptomycin (Gibco) and plated 200 μL/well in 96-well transparent plates (SPL Life Sciences Co., Ltd., Pocheon-si, Korea). After 2 h at 37 °C in a humidified atmosphere with 5% CO2, the wells were washed to remove non-adherent cells. After 24 h of incubation, 20 μL of the supernatants were substituted with 20 μL of solutions of test compounds, followed by E. coli O127:B8 LPS (100 ng/mL final concentration) after 30 min. The experiments were run in 3 independent replicates.
The accumulation of the nitrite anion (a stable end product of NO decomposition produced by iNOS) in supernatants was determined using a standard Griess reagent. Briefly, 50 μL of supernatants were collected 22 h after incubation of PM, and the test and control compounds were mixed with 50 μL of 1% […] in 2.5% H3PO4 and 50 μL of 0.1% N-(1-naphthyl) ethylenediamine in 2.5% H3PO4. After incubation at 23 °C for 10 min in an orbital shaker, the optical density was determined at a wavelength of 550 nm with a microplate reader Infinite M200 PRO (Tecan, Grödig, Austria).

[2] = Cytotoxicity, lactate dehydrogenase (LDH) activity in cell supernatants; assay type: cell-based, mouse; details: male, C57bl/6j, mouse, LPS-stimulated peritoneal macrophages
Procedure: as §1
(§2) The activity of lactate dehydrogenase (LDH) in a cell culture medium served as a marker of membrane permeability and cell death. […] Then, 25 μL of a 6.48 mM pyruvate solution was added to the mixture. The optical density was followed at a wavelength of 340 nm for 20 min. The MTT-test was performed 24 h after incubations of cells with tested compounds. Briefly, 20 μL of MTT solution was added to each well, incubated at 37 °C in a humidified atmosphere containing 5% CO2 for 4 h. The culture medium was removed, the cells were lysed, and formazan crystals were dissolved in 150 μL DMSO. The plates were shaken at room temperature for 10 min, and the optical density was measured in a microplate reader Infinite M200 PRO (Tecan, Grödig, Austria) at a wavelength of 565 nm.

[3] = tested on: peritoneal macrophages of C57bl/6j mice; test: as above; assay type: cell-based, mouse
Procedure: as §1, §2

C57BL/6J mice = test: LPS-induced acute lung injury in mice; assay type: in vivo, mouse
Procedure: The randomization of C57bl/6j mice into experimental and control groups was based on body weight and behavioral activity assessed in an open field test 24 h before the start of the experiment. The next day, mice were treated with vehicle or test compounds 1 h before intratracheal instillation of LPS solution in sterile saline.
The randomization of C57BL/6J mice was performed by body weight and motor activity in an open field test. Dexamethasone (5 mg/kg) and 9g (30 mg/kg) were administered intraperitoneally in 10 mL/kg sterile saline. The control animals received an equal volume of the vehicle. After 1 h, the mice were anesthetized with isoflurane inhalation until their breathing rate was decreased. The mice were suspended by the front incisors on an inclined surgical table, the tongue was pulled out with narrow curved tweezers, and 1 mg/mL of E. coli O127:B8 LPS (Sigma-Aldrich, St. Louis, MO, USA) in 1 mL/kg sterile saline was injected into the back of the oropharynx. Intact control animals received an equal volume of sterile saline similarly.
The animals were placed in the center of a round open field with an arena of 44 cm diameter and 32 cm wall height under 300 lux lighting. During 5 min of observation, horizontal motor activity, vertical motor activity, time spent in the central part, the number of exits to the central part, and exploratory activity parameters were recorded. Body temperature was determined rectally.
The mice were anesthetized with 500 mg/kg chloral hydrate (Sigma-Aldrich, St. Louis, MO, USA) intraperitoneally 24 h after LPS administration. Blood was taken by intracardiac puncture in test tubes with heparin. The blood samples were centrifuged at 1000 g and 4 °C for 15 min on a 2–16PK centrifuge (Sigma, Germany), and plasma was separated and stored at −80 °C until the assay. Thoracotomy was performed, the ligature was applied to the left bronchus and the trachea was cannulated with a 20 G needle. The right lung was washed twice with 0.7 mL of warm sterile saline. After combining aliquots, the bronchoalveolar lavage (BAL) was centrifuged at 800 g and 4 °C for 10 min. The supernatant was separated and stored at −80 °C until the assay. The residual cell pellet was resuspended in 50 μL of PBS for further study. The left lung was washed in saline and placed in 10% buffered formalin for morphological evaluation.
The total number of leukocytes in heparinized blood was determined after staining with methylene blue in Goryaev’s counting chamber at ×100 magnification. Smears of blood and BAL cell pellets were air-dried, fixed according to May–Grunwald for 3 min, and stained according to Romanowsky–Giemsa. After 30 min, the slides were washed, air-dried, and examined with immersion objective (×1000 total magnification). On each slide, a total of at least 100 cells were calculated.
The concentration of total protein in BAL supernatants was determined spectrophotometrically with the pyrogallol red method, and the protein in the blood plasma was determined with the biuret method using commercial kits (Vital, Saint Petersburg, Russia) and bovine serum albumin as the standard. The lung permeability index was calculated as the protein concentration in the BAL to plasma ratio.
Morphological markers of inflammation in lung tissue were assessed in a semi-quantitative way on paraffin sections stained with hematoxylin and eosin. The sections were examined under a light microscope (Zeiss, Germany) by a double-blind method. The score of inflammation was determined as follows: 0—the presence of single inflammatory cells; 1—weak inflammation, inflammatory cells infiltrate no more than 10% of the lung tissue, including interalveolar cell partitions; 2—moderate inflammation, inflammatory cells infiltrate no more than 50% of the structures of the lung, but the interstitial tissue is identified; 3—severe inflammation, inflammatory cells densely infiltrate more than 50% of the lung tissue and airways.

[4] = 24 h after LPS, dexamethasone 5 mg/kg, 9g 30 mg/kg i.p.

For `Cc1nc2nnnn2c(NCCc2ccc(O)cc2)c1[N+](=O)[O-]` [Compound 9g, N-[2-(4-Hydroxyphenyl)ethyl]-5-methyl-6-nitrotetrazolo-[1,5-a]pyrimidin-7-amine], the inhibition at 100 µM ([1]; 22 h, 100 μM, m ± SD, read-out: Inhibition of NO Synthesis vs. LPS Control) was 58.5 ± 5.93%, the IC50 ([1]; LPS-stimulated peritoneal macrophages) was 3.72 µM and the CC50 at 24 h [2] was > 100 µM. For the same compound, the “Cytotoxic properties during the phagocytosis experiment (LDH)” value ([3]; up to 72 h of incubation) was “No cytotoxic properties were noted”, the “Effect on viability of the macrophages” value ([3]; up to a concentration of 50 μM) was “did not affect the viability” and the Blood leukocyte subpopulations (C57BL/6J mice; 24 h after LPS) was “normalized leukocyte subpopulations to the values of intact animals”. The “CD68+ cells in lung tissue, immunostaining” value (C57BL/6J mice; 24 h after LPS) was “decreased the immunoreactivity of the lung tissue”, the “LPS-induced lung lesions, histologic scoring (hemorrhage and neutrophil infiltration)” value (C57BL/6J mice; 24 h after LPS, H&E, semi-quantitative) was “significantly ameliorated” and the “Blood plasma IL-6 level” value (C57BL/6J mice; [4]) was “normalized the blood plasma IL-6 level”. For the same compound, the “Permeability of pulmonary vessels (lung permeability index)” value (C57BL/6J mice; [4]) was “prevent the increase in permeability of pulmonary vessels”, the “Horizontal motor activity, open field test” value (C57BL/6J mice; 24 h after LPS, dexamethasone 5 mg/kg, 9g 30 mg/kg i.p. 1 h before LPS) was “restored motor activity of animals comparably to dexamethasone” and the “Segmented neutrophils count in BAL (in words)” value (C57BL/6J mice; 24 h after LPS, monocytes in BAL increased) was “significantly decreased the segmented neutrophils count”. For the same compound, the “Spleen mass and lymphocyte content (markers of immunodepression)” value (C57BL/6J mice; LPS-treated mice, dexamethasone 5 mg/kg, 9g 30 mg/kg i.p.) was “nonsignificant”, the LPS-induced hypothermia (C57BL/6J mice; body temperature determined rectally) was “attenuated LPS-induced hypothermia” and the “Segmented neutrophils, share of BAL cells” value (C57BL/6J mice; bronchoalveolar lavage 24 h after LPS, dexamethasone 5 mg/kg, 9g 30 mg/kg i.p.) was 37.6%. For the same compound, the “Number of center entries and time in the center, open field test” value (C57BL/6J mice; dexamethasone 5 mg/kg, 9g 30 mg/kg i.p.) was “restored the number of center entries and time in the center to intact levels”.
